Source: patent US10820588B2, “Compositionally and morphologically controlled nanostructures for delivery of micronutrients and suppression of disease in agriculture” (Wisconsin Alumni Research Foundation, priority 2018, dated 2020)

Key:
Type in all cases: in vivo
[1] = test system: Fusarium wilt of watermelon; test: Field experiment Location 1, Fusarium wilt of watermelon
Method: (§1) Field experiments were conducted to evaluate if successful greenhouse results would translate to a field application. The following six treatments were established at two field locations (Hamden, Conn.—Location 1; and Griswold, Conn.—Location 2) to evaluate their effect on growth and Fusarium wilt of watermelon: CuO nanoparticles, Cu3(PO4)2.3H2O nanosheets, commercial powders of CuO and Cu3(PO4)2, CuSO4, and untreated controls. The commercial powders are not nanostructured as particles within the powders typically have a range of sizes from about 1 μm to 1 mm. Again, the primary purpose of this work was to compare the efficacy of the two nanoscale materials, and the suspensions of CuO and Cu3(PO4)2 commercial powders and the solution of CuSO4 were included only for comparison. It is noted that the CuO and Cu3(PO4)2 materials were used at concentrations where there were solid particles present in the liquid formulations, so those liquid formulations are best characterized as being suspensions with some dissolved ions. By contrast, because of its high solubility, CuSO4 in liquid is completely dissolved and thus is a true solution (only ions present and no remaining solid). […]
(§2) Field microplots were prepared in early June, 2017. […] Total plant biomass and fruit mass were determined at harvest, and select tissues were dried for analysis by ICP mass spectrometry (ICP-MS) as noted below.

[2] = test system: F. oxysporum f. sp. niveum; test: Greenhouse foliar spray, watermelon with or without Fusarium; settings: disease conditions
Method: Watermelon seeds (Citrullus lanatus Thunb. cv Sugar Baby, Harris Seed Co., Rochester, N.Y.) were germinated in soilless potting mix (ProMix BX, Premier Hort Tech, Quakertown, Pa., USA) and fertilized once after three weeks with 40 mL of Peter's soluble 20-10-20 (N—P—K) fertilizer (R. J. Peters Inc., Allentown, Pa.). When plants reached the 3- to 4-leaf stage, uniform medium size plants were selected for NP exposure. […] For CuO NP, the suspension was sonicated using a probe sonicator for 2 min in an ice bath. […] One to two drops (1 ml/L) of Regulaid® nonionic surfactant were added into the suspensions prior to exposure. Polyvinylidene chloride film (Saran™ wrap) was fitted around the stem to prevent soil exposure to the NP suspensions. Although the primary purpose of this work was to compare different nanoscale materials, bulk CuO and CuSO4 (Sigma, St. Louis, Mo.) were used for additional comparative purposes in the greenhouse experiments. […]
F. oxysporum f. sp. niveum was prepared on Japanese millet, as previously described. […] The progress of disease as represented by the cumulative ratings of disease on replicate plants was plotted over time and the AUDPC was calculated using the trapezoid rule: AUDPC=Σ[Yi±Y(i±1)]/2×(t(i±1)−ti), where Yi=the disease rating at time ti. […]

[3] = test system: Fusarium wilt of watermelon; test: Field experiment Location 2, Fusarium wilt of watermelon; settings: location 2, 400 mg/L, not statistically significant
Method: as §1, §2

O=S(=O)([O-])[O-].[Cu+2] [CuSO4]
disease result compared with the nanomaterial treatments ([1]; field, 400 mg/L): statistically equivalent | increase of yield (total wet mass of fruit per plot) over the disease condition ([1]; location 1, 400 mg/L): no such benefit | effect on disease-induced decrease in vine length [2]: had no impact | increase of fruit yield [3]: 38.2%
